Two compounds from patent publication US20130137081A1, “METHOD OF CRYOPRESERVING SELECTED SPERM CELLS” (XY,LLC, priority 1999, published 2013) can be followed below.

The test system of one test is flow-sorted bull sperm. As to the kind of experiment: Post-thaw motility of bulk-sorted frozen sperm: Hoechst 33342 dye concentration and laser intensity (Example 3). Type of test: cell-based, bovine. Conditions: for post-thaw motility: main effect mean. The procedure:
Straws were thawed in a 37° C. water bath for 30 sec. Blind estimates of progressive motility were made after incubating samples at 37° C. for 0, 1 and 2 h post-thawing. Each of two observers estimated progressive sperm motility from each of two straws of semen. These four blind estimates for each experimental unit represent subsampling.
Sperm of 6 bulls were collected and prepared as described in Example 1A.
a) Experimental Design. • One ejaculate (2 bulls) and 2 ejaculates on different days (4 bulls) were used in a 2 by 2 design plus control.
b) Staining and Sorting. • Staining, preparation for sorting and sorting sperm were achieved as described in Example 2 except that the Hoechst 33342 dye was added to sperm suspensions at a final concentration of 149 μM or 224 μM; and sperm were bulked-sorted with the laser operating at 100 mW or 150 mW of incident power. Bulk-sorted sperm were collected into 50-ml plastic tubes as described in Example 2. Four tubes containing approximately 15×10^6 total sperm/tube were collected over 1 h for each bull. The sorted sperm were incubated for 1 h at 22° C. to simulate a longer sorting time.
c) Preparation for Freezing. • Following incubation, the sperm were cooled as in Example 2. The sperm were then concentrated by centrifugation at 5° C. at 850×g for 20 minutes. After removing the supernatant, 150 μl of Tris-A fraction extender was added to each 150-μl sperm pellet at 5° C. All of the sperm pellets were suspended by gentle repeated aspiration and the sperm of individual bulls were pooled. Tris B-fraction extender was added stepwise as described in Example 2. A non-stained, non-sorted control for each bull was prepared at 20×10^6 sperm/ml in Tris extender containing 6% glycerol and cooled to 5° C. while the bulk-sorted sperm were being prepared.
d) Equilibration and Freezing. • The control and sorted sperm were packaged into 0.25-ml polyvinylchloride straws as described in Example 2, equilibrated at 5° C. for 3 h and then frozen conventionally.
Straws were thawed and evaluated as described in Example 2.

The subject of the next test is bull sperm. The test can be described thus: Post-thaw progressive motility of sperm frozen in WET extender with SDS (Example 5A). Type of test: cell-based, bovine. The settings on record: mean of 6 bulls. The procedure:
Sperm of 6 bulls were collected and prepared as described in Example 1A. Sperm from each of 6 bulls were extended to 20×10^6/ml in 20% whole egg Tris (“WET”) extender containing 0, 0.03, 0.06, 0.09, or 0.12 percent SDS, packaged into straws and frozen. WET extender was prepared using 3.028 g of Tris[hydroxymethyl]aminomethane, 1.78 g of citric acid monohydrate, and 1.25 g of fructose per 100 ml of double distilled water, to which 20% whole egg (vol/vol) was added. The WET extender was prepared at a pH of about 7.0 and contained a final glycerol concentration of about 6% (vol/vol). The WET extender also contained 1000 IU of penicillin “G” sodium and 100 μg of streptomycin sulfate/ml.

For the compound `CCOc1ccc(-c2nc3ccc(-c4nc5ccc(N6CCN(C)CC6)cc5[nH]4)cc3[nH]2)cc1` [Hoechst 33342, bis-Benzimide H-33342], the “effect of dye concentration on post-thaw sperm motility” value with flow-sorted bull sperm (149 μM vs 224 μM) was “no effect”. Also, the post-thaw motility with flow-sorted bull sperm (Hoechst 33342 149 μM, 0 h incubation at 37° C.) is reported as 41%; in the test on flow-sorted bull sperm (Hoechst 33342 149 μM, 1 h incubation at 37° C.), 39%; with flow-sorted bull sperm (Hoechst 33342 149 μM, 2 h incubation at 37° C.) it was 30%; in the test on flow-sorted bull sperm (Hoechst 33342 224 μM, 0 h incubation at 37° C.), 42%; in the test with flow-sorted bull sperm (Hoechst 33342 224 μM, 1 h incubation at 37° C.), 39%; in the test on flow-sorted bull sperm (Hoechst 33342 224 μM, 2 h incubation at 37° C.), 30%.

On to `CCCCCCCCCCCCOS(=O)(=O)[O-].[Na+]` [SDS, sodium dodecyl sulfate], for which the “progressive motile sperm approximately 10 minutes post-thaw” value is 51% in the test on bull sperm (WET extender containing 0.03 percent SDS), 50% in the test on bull sperm (WET extender containing 0.06 percent SDS), 51% in the test on bull sperm (WET extender containing 0.09 percent SDS) and 48% with bull sperm (WET extender containing 0.12 percent SDS).
